From US20260325685A1, “Radiopharmaceutical Compositions Targeting Carbonic Anhydrase IX and Uses Thereof” (RayzeBio, Inc., priority 2023, published 2026)

Experiments:
[1] = molecular target: T1, human CA-XII (Homo sapiens, UniProt O43570); experiment: Surface Plasmon Resonance (SPR) binding kinetics to recombinant human CA-XII (Biacore 8K, single-cycle kinetics, 1:1 binding model); details: Chelated Metal: Lu-175, 25° C., pH 7.4, read-out: CAXII KD
T1 construct: purchased Creative BioMart CA12-261H
Method in brief: (§1)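 First, ligand at 10 μg/mL was captured on streptavidin to 1200-1800 RU, with 180 s injection for CA-IX and 75 s for CA-XII. Next, compound (100-0.39 nM, 9 levels) in PBS-P+ with 1% DMSO was injected. Association lasted 120 s and dissociation 1200 s at 25° C.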

[2] = molecular target: T2, human CA-IX (Homo sapiens, UniProt Q16790); experiment: Surface Plasmon Resonance (SPR) binding kinetics to recombinant human CA-IX (Biacore 8K, single-cycle kinetics, 1:1 binding model); details: Chelated Metal: Lu-175; SPR, 25° C., pH 7.4; read-out: CAIX KD
T2 construct: purchased Acro CA9-H82E3
Method in brief: as §1

T1 sequence (O43570 25-354): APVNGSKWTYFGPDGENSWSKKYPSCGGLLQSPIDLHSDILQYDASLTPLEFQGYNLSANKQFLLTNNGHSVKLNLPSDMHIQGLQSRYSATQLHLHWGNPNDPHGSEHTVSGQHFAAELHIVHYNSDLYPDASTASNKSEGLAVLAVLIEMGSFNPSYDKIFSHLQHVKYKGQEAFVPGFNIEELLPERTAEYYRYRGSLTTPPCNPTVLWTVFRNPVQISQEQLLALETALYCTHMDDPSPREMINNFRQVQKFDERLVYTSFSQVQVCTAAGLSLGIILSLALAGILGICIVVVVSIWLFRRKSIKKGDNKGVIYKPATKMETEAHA

Compound | Kd [1] | Kd [2]
NS(=O)(=O)c1nnc(NC(=O)C23CC(c4cn(CCNC(=O)[C@@H]5CN(C(=O)CN6CCN(CC(=O)O)CCN(CC(=O)O)CCN(CC(=O)O)CC6)CCN5C(=O)C[C@H](NC(=O)C[C@H](NCc5ccc(C6CC6)cc5)C(=O)O)C(=O)O)nn4)(C2)C3)s1.[Lu+3] [Compound 109.21] | > 10 nM | < 1 nM
CC1(c2ccc(C(=O)N[C@@H](CC(=O)N[C@@H](CC(=O)N3CCN(C(=O)CN4CCN(CC(=O)O)CCN(CC(=O)O)CCN(CC(=O)O)CC4)C[C@H]3C(=O)NCCn3cc(C45CC(C(=O)Nc6nnc(S(N)(=O)=O)s6)(C4)C5)nn3)C(=O)O)C(=O)O)cc2)CC1.[Lu+3] [Compound 109.22] | 2.5 to 10 nM | 1 to 2.5 nM
NS(=O)(=O)c1nnc(NC(=O)C23CC(c4cn(CCNC(=O)[C@@H]5CN(C(=O)CN6CCN(CC(=O)O)CCN(CC(=O)O)CCN(CC(=O)O)CC6)CCN5C(=O)C[C@H](NC(=O)C[C@H](NC(=O)c5cnc(C6CC6)nc5)C(=O)O)C(=O)O)nn4)(C2)C3)s1.[Lu+3] [Compound 109.23] | > 10 nM | 2.5 to 10 nM
NS(=O)(=O)c1nnc(NC(=O)C23CC(c4cn(CCNC(=O)[C@@H]5CN(C(=O)CN6CCN(CC(=O)O)CCN(CC(=O)O)CCN(CC(=O)O)CC6)CCN5C(=O)C[C@H](NC(=O)C[C@H](NC(=O)c5ccc(C6(C(F)(F)F)CC6)cc5)C(=O)O)C(=O)O)nn4)(C2)C3)s1.[Lu+3] [Compound 109.24] | 2.5 to 10 nM | 1 to 2.5 nM
NS(=O)(=O)c1nnc(NC(=O)C23CC(c4cn(CCNC(=O)[C@@H]5CN(C(=O)CN6CCN(CC(=O)O)CCN(CC(=O)O)CCN(CC(=O)O)CC6)CCN5C(=O)C[C@H](NC(=O)C[C@H](NC(=O)c5ccc(C6(C(F)(F)F)CC6)cn5)C(=O)O)C(=O)O)nn4)(C2)C3)s1.[Lu+3] [Compound 109.25] | 2.5 to 10 nM | < 1 nM
CC(C)(C)c1ccc(C(=O)N[C@@H](CC(=O)N[C@@H](CC(=O)N2CCN(C(=O)CN3CCN(CC(=O)O)CCN(CC(=O)O)CCN(CC(=O)O)CC3)C[C@H]2C(=O)NCCn2cc(C34CC(C(=O)Nc5nnc(S(N)(=O)=O)s5)(C3)C4)nn2)C(=O)O)C(=O)O)cc1.[Lu+3] [Compound 109.26] | 2.5 to 10 nM | 1 to 2.5 nM
CC(C)(C)c1ccc(CC(=O)N[C@@H](CC(=O)N[C@@H](CC(=O)N2CCN(C(=O)CN3CCN(CC(=O)O)CCN(CC(=O)O)CCN(CC(=O)O)CC3)C[C@H]2C(=O)NCCn2cc(C34CC(C(=O)Nc5nnc(S(N)(=O)=O)s5)(C3)C4)nn2)C(=O)O)C(=O)O)cc1.[Lu+3] [Compound 109.27] | 2.5 to 10 nM | 1 to 2.5 nM
NS(=O)(=O)c1nnc(NC(=O)C23CC(c4cn(CCNC(=O)[C@@H]5CN(C(=O)CN6CCN(CC(=O)O)CCN(CC(=O)O)CCN(CC(=O)O)CC6)CCN5C(=O)C[C@H](NC(=O)C[C@H](NC(=O)c5n[nH]nc5C(F)(F)F)C(=O)O)C(=O)O)nn4)(C2)C3)s1.[Lu+3] [Compound 109.28] | 1 to 2.5 nM | < 1 nM
NS(=O)(=O)c1nnc(NC(=O)C23CC(c4cn(CCNC(=O)[C@@H]5CN(C(=O)CN6CCN(CC(=O)O)CCN(CC(=O)O)CCN(CC(=O)O)CC6)CCN5C(=O)C[C@H](NC(=O)C[C@H](NCC5CC5)C(=O)O)C(=O)O)nn4)(C2)C3)s1.[Lu+3] [Compound 109.29] | > 10 nM | 2.5 to 10 nM
Cc1cc(C2CC2)ccc1C(=O)N[C@@H](CC(=O)N[C@@H](CC(=O)N1CCN(C(=O)CN2CCN(CC(=O)O)CCN(CC(=O)O)CCN(CC(=O)O)CC2)C[C@H]1C(=O)NCCn1cc(C23CC(C(=O)Nc4nnc(S(N)(=O)=O)s4)(C2)C3)nn1)C(=O)O)C(=O)O.[Lu+3] [Compound 109.30] | 2.5 to 10 nM | < 1 nM
NS(=O)(=O)c1nnc(NC(=O)C23CC(c4cn(CCNC(=O)[C@@H]5CN(C(=O)CN6CCN(CC(=O)O)CCN(CC(=O)O)CCN(CC(=O)O)CC6)CCN5C(=O)C[C@H](NC(=O)C[C@H](NC(=O)c5n[nH]c6ccc(O)cc56)C(=O)O)C(=O)O)nn4)(C2)C3)s1.[Lu+3] [Compound 109.31] | 2.5 to 10 nM | < 1 nM
NS(=O)(=O)c1nnc(NC(=O)C23CC(c4cn(CCNC(=O)[C@@H]5CN(C(=O)CN6CCN(CC(=O)O)CCN(CC(=O)O)CCN(CC(=O)O)CC6)CCN5C(=O)C[C@H](NC(=O)C[C@H](NC(=O)Cc5n[nH]c6ccc(O)cc56)C(=O)O)C(=O)O)nn4)(C2)C3)s1.[Lu+3] [Compound 109.32] | > 10 nM | < 1 nM
CC(CCC(=O)N[C@@H](CC(=O)N[C@@H](CC(=O)N1CCN(C(=O)CN2CCN(CC(=O)O)CCN(CC(=O)O)CCN(CC(=O)O)CC2)C[C@H]1C(=O)NCCn1cc(C23CC(C(=O)Nc4nnc(S(N)(=O)=O)s4)(C2)C3)nn1)C(=O)O)C(=O)O)(c1ccccc1)c1ccc(O)cc1.[Lu+3] (stereo partly drawn) [Compound 109.33] | > 10 nM | 1 to 2.5 nM
NS(=O)(=O)c1nnc(NC(=O)C23CC(c4cn(CCNC(=O)[C@@H]5CN(C(=O)CN6CCN(CC(=O)O)CCN(CC(=O)O)CCN(CC(=O)O)CC6)CCN5C(=O)C[C@H](NC(=O)C[C@H](NC(=O)Cn5nc(-c6ccc(O)cc6)c6ccc(O)cc65)C(=O)O)C(=O)O)nn4)(C2)C3)s1.[Lu+3] [Compound 109.34] | 2.5 to 10 nM | < 1 nM
NS(=O)(=O)c1nnc(NC(=O)C23CC(c4cn(CCNC(=O)[C@@H]5CN(C(=O)CN6CCN(CC(=O)O)CCN(CC(=O)O)CCN(CC(=O)O)CC6)CCN5C(=O)C[C@H](NC(=O)C[C@H](NC(=O)c5ccc(C(F)(F)F)cc5)C(=O)O)C(=O)O)nn4)(C2)C3)s1.[Lu+3] [Compound 109.35] | 2.5 to 10 nM | 1 to 2.5 nM
NS(=O)(=O)c1nnc(NC(=O)C23CC(c4cn(CCNC(=O)[C@@H]5CN(C(=O)CN6CCN(CC(=O)O)CCN(CC(=O)O)CCN(CC(=O)O)CC6)CCN5C(=O)C[C@H](NC(=O)C[C@H](NC(=O)CCCc5ccc6c(c5)CCCC6)C(=O)O)C(=O)O)nn4)(C2)C3)s1.[Lu+3] [Compound 109.36] | 2.5 to 10 nM | 1 to 2.5 nM
NS(=O)(=O)c1nnc(NC(=O)C23CC(c4cn(CCNC(=O)[C@@H]5CN(C(=O)CN6CCN(CC(=O)O)CCN(CC(=O)O)CCN(CC(=O)O)CC6)CCN5C(=O)C[C@H](NC(=O)C[C@H](NC(=O)CCCc5ccc(Cl)cc5)C(=O)O)C(=O)O)nn4)(C2)C3)s1.[Lu+3] [Compound 109.37] | 2.5 to 10 nM | < 1 nM
NS(=O)(=O)c1nnc(NC(=O)C23CC(c4cn(CCNC(=O)[C@@H]5CN(C(=O)CN6CCN(CC(=O)O)CCN(CC(=O)O)CCN(CC(=O)O)CC6)CCN5C(=O)C[C@H](NC(=O)C[C@H](NC(=O)c5ccc(CC6CC6)cc5)C(=O)O)C(=O)O)nn4)(C2)C3)s1.[Lu+3] [Compound 109.38] | 2.5 to 10 nM | < 1 nM
CC(C)c1ccc(C(=O)N[C@@H](CC(=O)N[C@@H](CC(=O)N2CCN(C(=O)CN3CCN(CC(=O)O)CCN(CC(=O)O)CCN(CC(=O)O)CC3)C[C@H]2C(=O)NCCn2cc(C34CC(C(=O)Nc5nnc(S(N)(=O)=O)s5)(C3)C4)nn2)C(=O)O)C(=O)O)cc1.[Lu+3] [Compound 109.39] | 2.5 to 10 nM | 1 to 2.5 nM
CC(CCCC(=O)N1CCCC[C@H]1C(=O)N[C@@H](CC(=O)N1CCN(C(=O)CN2CCN(CC(=O)O)CCN(CC(=O)O)CCN(CC(=O)O)CC2)C[C@@H]1C(=O)NCCn1cc(C23CC(C(=O)Nc4nnc(S(N)(=O)=O)s4)(C2)C3)nn1)C(=O)O)(c1ccc(O)cc1)c1ccc(O)cc1.[Lu+3] [Compound 109.40] | > 10 nM | < 1 nM
NS(=O)(=O)c1nnc(NC(=O)C23CCC(c4cn(CCNC(=O)[C@@H]5CN(C(=O)CN6CCN(CC(=O)O)CCN(CC(=O)O)CCN(CC(=O)O)CC6)CCN5C(=O)CC[C@H](NC(=O)C[C@H](NC(=O)Cc5[nH]nc6ccc(O)cc56)C(=O)O)C(=O)O)nn4)(CC2)CC3)s1.[Lu+3] [Compound 109.41] | < 1 nM | < 1 nM
NS(=O)(=O)c1nnc(NC(=O)C23CCC(c4cn(CCNC(=O)[C@@H]5CN(C(=O)CN6CCN(CC(=O)O)CCN(CC(=O)O)CCN(CC(=O)O)CC6)CCN5C(=O)CC[C@H](NC(=O)C[C@H](NC(=O)CCCc5ccc(O)cc5)C(=O)O)C(=O)O)nn4)(CC2)CC3)s1.[Lu+3] [Compound 109.42] | < 1 nM | < 1 nM
NS(=O)(=O)c1nnc(NC(=O)C23CCC(c4cn(CCNC(=O)[C@@H]5CN(C(=O)CN6CCN(CC(=O)O)CCN(CC(=O)O)CCN(CC(=O)O)CC6)CCN5C(=O)CC[C@H](NC(=O)C[C@H](NC(=O)CCc5ccc(O)cc5)C(=O)O)C(=O)O)nn4)(CC2)CC3)s1.[Lu+3] [Compound 109.43] | < 1 nM | < 1 nM
NS(=O)(=O)c1nnc(NC(=O)C23CCC(c4cn(CCNC(=O)[C@@H]5CN(C(=O)CN6CCN(CC(=O)O)CCN(CC(=O)O)CCN(CC(=O)O)CC6)CCN5C(=O)CC[C@H](NC(=O)C[C@H](NC(=O)CCC5CCCCC5)C(=O)O)C(=O)O)nn4)(CC2)CC3)s1.[Lu+3] [Compound 109.44] | < 1 nM | < 1 nM
NS(=O)(=O)c1nnc(NC(=O)C23CCC(c4cn(CCNC(=O)[C@@H]5CN(C(=O)CN6CCN(CC(=O)O)CCN(CC(=O)O)CCN(CC(=O)O)CC6)CCN5C(=O)CC[C@H](NC(=O)C[C@H](NC(=O)c5n[nH]c6ccc(O)cc56)C(=O)O)C(=O)O)nn4)(CC2)CC3)s1.[Lu+3] [Compound 109.45] | < 1 nM | < 1 nM
NS(=O)(=O)c1nnc(NC(=O)C23CCC(c4cn(CCNC(=O)[C@@H]5CN(C(=O)CN6CCN(CC(=O)O)CCN(CC(=O)O)CCN(CC(=O)O)CC6)CCN5C(=O)CC[C@H](NC(=O)C[C@H](NC(=O)CCC5CCCCCC5)C(=O)O)C(=O)O)nn4)(CC2)CC3)s1.[Lu+3] [Compound 109.46] | < 1 nM | < 1 nM
NS(=O)(=O)c1nnc(NC(=O)C23CCC(c4cn(CCNC(=O)[C@@H]5CN(C(=O)CN6CCN(CC(=O)O)CCN(CC(=O)O)CCN(CC(=O)O)CC6)CCN5C(=O)CC[C@H](NC(=O)C[C@H](NC(=O)c5cc(C(F)(F)F)[nH]n5)C(=O)O)C(=O)O)nn4)(CC2)CC3)s1.[Lu+3] [Compound 109.47] | < 1 nM | < 1 nM
